Where a SMILES comes first, the peptide text is derived from it. Bridges are numbered along the chain shown (N, C = ends). [ ]: non-standard residue; d: D form. The star is where a group is joined. hPhe(3-Cl-4-CF3) = N[C@@H](CCc1ccc(C(F)(F)F)c(Cl)c1)C(=O)O; NPrPhe(4-CF3) = CCCN[C@@H](Cc1ccc(C(F)(F)F)cc1)C(=O)O; NMeGly(cPent) = CN[C@H](C(=O)O)C1CCCC1; Pro(4,4-F2) = O=C(O)[C@@H]1CC(F)(F)CN1; Pro(4,4-Me2) = CC1(C)CN[C@H](C(=O)O)C1; NMeD = CN[C@@H](CC(=O)O)C(=O)O; NMeL = CN[C@@H](CC(C)C)C(=O)O; NMeNva = CCC[C@H](NC)C(=O)O; Morpholide = C1CN(*)CCO1; NMeA = CN[C@@H](C)C(=O)O; Ac5c = NC1(C(=O)O)CCCC1; Aze = O=C(O)[C@@H]1CCN1; Sar = CNCC(=O)O
How the values were obtained:
[1] = target: GDP-bound NRAS wild-type protein (Homo sapiens, UniProt P01111); test: Binding to NRAS by surface plasmon resonance (SPR), Single Cycle Kinetics
Sequence of GDP-bound NRAS wild-type protein (P01111 whole entry): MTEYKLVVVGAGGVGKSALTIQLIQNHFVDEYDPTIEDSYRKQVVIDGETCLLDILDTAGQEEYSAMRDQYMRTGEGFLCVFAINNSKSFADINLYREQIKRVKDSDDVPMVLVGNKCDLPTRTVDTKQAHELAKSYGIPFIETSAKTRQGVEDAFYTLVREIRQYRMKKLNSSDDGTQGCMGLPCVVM

[2] = target: GDP-bound HRAS wild-type protein (Homo sapiens, UniProt P01112); test: Binding to HRAS by surface plasmon resonance (SPR), Single Cycle Kinetics
Sequence of GDP-bound HRAS wild-type protein (P01112 whole entry): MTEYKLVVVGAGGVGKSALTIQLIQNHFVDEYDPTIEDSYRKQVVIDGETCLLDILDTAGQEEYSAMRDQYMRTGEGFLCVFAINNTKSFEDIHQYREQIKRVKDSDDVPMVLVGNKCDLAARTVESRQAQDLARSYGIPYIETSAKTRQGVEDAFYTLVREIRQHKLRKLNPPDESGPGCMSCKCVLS

[3] = KD ratio NRAS/KRAS, class symbols
[4] = KD ratio HRAS/KRAS, class symbols

In the case of `CCC[C@H]1C(=O)N[C@@H]([C@@H](C)CC)C(=O)N(C)[C@@H](C)C(=O)N2CC[C@H]2C(=O)N(CCC)[C@@H](Cc2ccc(C(F)(F)F)cc2)C(=O)N(C)CC(=O)N[C@@H](CCc2ccc(C(F)(F)F)c(Cl)c2)C(=O)N2CC(F)(F)C[C@H]2C(=O)NC2(CCCC2)C(=O)N(C)[C@@H](C2CCCC2)C(=O)N(C)[C@H](C(=O)N2CCOCC2)CC(=O)N1C` [PP0205] ([NMeNva]I[NMeA][Aze][NPrPhe(4-CF3)][Sar][hPhe(3-Cl-4-CF3)][Pro(4,4-F2)][Ac5c][NMeGly(cPent)][NMeD]-Morpholide; lactam N-11), the “NRAS/KRAS (ratio of KD for GDP-bound NRAS wild-type to KD for KRAS)” value ([1]; KD ratio NRAS/KRAS, SPR) is reported as “C (A compound having a KD ratio of 0.1 or more and less than 3 is denoted as C)” and the “HRAS/KRAS (ratio of KD for GDP-bound HRAS wild-type to KD for KRAS)” value ([2]; KD ratio HRAS/KRAS, SPR) is reported as “C (A compound having a KD ratio of 0.1 or more and less than 3 is denoted as C)”.
For `CCO[C@@H]1C[C@H]2C(=O)NC3(CCC3)C(=O)N(C)[C@@H](C3CCCC3)C(=O)N(C)[C@H](C(=O)N(C)CC)CC(=O)N(C)[C@@H](CC)C(=O)N[C@@H]([C@@H](C)CC)C(=O)N(C)CC(=O)N(C)[C@H]3C/C=C\CCN(C3=O)[C@@H](CC3CCC(F)(F)CC3)C(=O)N(C)CC(=O)N[C@@H](CCc3cc(F)c(C(F)(F)F)c(F)c3)C(=O)N2C1` [PP1553], the “NRAS/KRAS (ratio of KD value for GDP-bound NRAS wild-type protein to KD value for KRAS)” value ([1]; SPR, KD ratio class) was “A (a compound having 10 or more and less than 20 is denoted as A)” and the “HRAS/KRAS (ratio of KD value for GDP-bound HRAS wild-type protein to KD value for KRAS)” value ([2]; SPR, KD ratio class) was “A (a compound having 10 or more and less than 20 is denoted as A)”.
With `CCCN(C)C(=O)[C@@H]1CC(=O)N(C)[C@@H](CC)C(=O)N[C@@H]([C@@H](C)CC)C(=O)N(C)CC(=O)N(C)[C@H]2C/C=C\CCN(C2=O)[C@@H](Cc2ccc(C(F)(F)F)cc2)C(=O)N(C)CC(=O)N[C@@H](CCc2cc(F)c(C(F)(F)F)c(F)c2)C(=O)N2CC[C@H]2C(=O)NC2(CCC2)C(=O)N(C)[C@@H](C2CCCC2)C(=O)N1C` [PP2915] the “NRAS/KRAS (ratio of KD value with respect to GDP-bound NRAS wild-type protein to KD value with respect to KRAS)” value [1, 3] was “A (a compound having 10 or more and less than 20 is denoted as A)” and the “HRAS/KRAS (ratio of KD value with respect to GDP-bound HRAS wild-type protein to KD value with respect to KRAS)” value [2, 4] was “A (a compound having 10 or more and less than 20 is denoted as A)”.
With `CCCN1C(=O)[C@@H]2CCN2C(=O)[C@H](C)N(C)C(=O)[C@H]([C@@H](C)CC)NC(=O)[C@H](CC(C)C)N(C)C(=O)C[C@@H](C(=O)N2CCOCC2)N(C)C(=O)[C@H](C2CCCC2)N(C)C(=O)C2(CCCC2)NC(=O)[C@@H]2CC(C)(C)CN2C(=O)[C@H](CCc2ccc(C(F)(F)F)c(Cl)c2)NC(=O)CN(C)C(=O)[C@@H]1Cc1ccc(C(F)(F)F)cc1` [PP0454] ([NMeL]I[NMeA][Aze][NPrPhe(4-CF3)][Sar][hPhe(3-Cl-4-CF3)][Pro(4,4-Me2)][Ac5c][NMeGly(cPent)][NMeD]-Morpholide; lactam N-11) the “NRAS/KRAS (ratio of KD value with respect to GDP-bound NRAS wild-type protein to KD value with respect to KRAS)” value ([1]; KD ratio NRAS/KRAS, SPR) was “C (A compound having a KD ratio of 0.1 or more and less than 3 is denoted as C)” and the “HRAS/KRAS (ratio of KD value with respect to GDP-bound HRAS wild-type protein to KD value with respect to KRAS)” value ([2]; KD ratio HRAS/KRAS, SPR) was “C (A compound having a KD ratio of 0.1 or more and less than 3 is denoted as C)”.
`CCCN1C(=O)C[C@@H](C(=O)N(C)C)N(C)C(=O)[C@H](C2CCCC2)N(C)C(=O)C2(CCC2)NC(=O)[C@@H]2C[C@@H](OCC)CN2C(=O)[C@H](CCc2cc(F)c(C(F)(F)F)c(F)c2)NC(=O)CN(C)C(=O)[C@H](Cc2ccc(C(F)(F)F)cc2)N2CC/C=C\C[C@@H](C2=O)N(C)C(=O)CNC(=O)[C@H]([C@@H](C)CC)NC(=O)[C@@H]1CC(C)C` [PP1826] was tested, and the “NRAS/KRAS (ratio of KD value for NRAS to KD value for KRAS)” value ([1]; KD ratio, GDP-bound NRAS wild-type vs GDP-bound KRAS wild-type, SPR) was “A (a compound having 10 or more and less than 20 is denoted as A)” and the “HRAS/KRAS (ratio of KD value for HRAS to KD value for KRAS)” value ([2]; KD ratio, GDP-bound HRAS wild-type vs GDP-bound KRAS wild-type, SPR) was “A (a compound having 10 or more and less than 20 is denoted as A)”.
`CC[C@H](C)[C@@H]1NC(=O)[C@H](CC(C)C)N(C)C(=O)C[C@@H](C(=O)N2CCOCC2)N(C)C(=O)[C@H](C2CCCC2)N(C)C(=O)C2(CCCC2)NC(=O)[C@@H]2CCCN2C(=O)[C@H](CCc2ccc(C(F)(F)F)c(Cl)c2)NC(=O)CN(C)C(=O)[C@H](Cc2ccccc2)N2CCCC[C@@H](C2=O)N(C)C(=O)CN(C)C1=O` [PP0529] was tested, and the “NRAS/KRAS (ratio of KD value with respect to GDP-bound NRAS wild-type protein to KD value with respect to KRAS)” value ([1]; KD ratio NRAS/KRAS, SPR) was “C (A compound having a KD ratio of 0.1 or more and less than 3 is denoted as C)” and the “HRAS/KRAS (ratio of KD value with respect to GDP-bound HRAS wild-type protein to KD value with respect to KRAS)” value ([2]; KD ratio HRAS/KRAS, SPR) was “B (a compound having 3 or more and less than 10 is denoted as B)”.
`CCC[C@H]1C(=O)N[C@@H](CC(C)C)C(=O)N(C2CC2)CC(=O)N(C)[C@H]2C/C=C\CCN(C2=O)[C@@H](Cc2ccc(C)cc2)C(=O)N(C)CC(=O)N[C@@H](CCc2ccc(C(F)(F)F)c(OC)c2)C(=O)N2C[C@H](OCC)C[C@H]2C(=O)NC2(CCC2)C(=O)N(C)[C@@H](C2CCCC2)C(=O)N(C)[C@H](C(=O)N(C)C)CC(=O)N1C` [PP2534] was tested, and the “NRAS/KRAS (ratio of KD value with respect to GDP-bound NRAS wild-type protein to KD value with respect to KRAS)” value [1, 3] was “A (a compound having 10 or more and less than 20 is denoted as A)” and the “HRAS/KRAS (ratio of KD value with respect to GDP-bound HRAS wild-type protein to KD value with respect to KRAS)” value [2, 4] was “B (a compound having 3 or more and less than 10 is denoted as B)”.
